# Source: ChEMBL document CHEMBL3885861, “Open TG-GATES”
# Species: Rattus norvegicus
# Test: Open TG-GATES - Regimen: Daily Repeat
# Assay type: toxicity, organism-based, Sprague-Dawley
# Set-up: regimen Daily Repeat, gender Male, age 6 weeks
# Conditions: in vivo, po, 0 mg/kg, route gavage, dose level Control; for APTT / Bas / Eos / Fbg / Hb / Ht / Lym / MCH / MCHC / MCV / Mono / Neu / PT / Plat / RBC / Ret / WBC: tissue Blood; for KIDNEY_L / KIDNEY_R / KIDNEY_TOTAL: tissue Kidney; for LIVER: tissue Liver; for A/G / ALP / ALT / AST / BUN / CRE / Ca / Cl / DBIL / GLC / IP / K / LDH / Na / PL / RALB / TBIL / TC / TG / TP / gamma-GTP: tissue Plasma
structure (smiles),measurement,setting,value
Cn1cnc([N+](=O)[O-])c1Sc1ncnc2nc[nH]c12 [AZATHIOPRINE],TERMINAL_BW,"72 h, time 3 day",200.7 g
same,APTT,"72 h, time 3 day",21.5 s
same,Bas,"72 h, time 3 day",0%
same,Eos,"72 h, time 3 day",0.8%
same,Fbg,"72 h, time 3 day",305.2 mg/dL
same,Hb,"72 h, time 3 day",13.5 g/dL
same,Ht,"72 h, time 3 day",39.8%
same,Lym,"72 h, time 3 day",80.4%
same,MCH,"72 h, time 3 day",21.4 pg
same,MCHC,"72 h, time 3 day",33.8%
same,MCV,"72 h, time 3 day",63.1 fL
same,Mono,"72 h, time 3 day",2.2%
same,Neu,"72 h, time 3 day",15.4%
same,PT,"72 h, time 3 day",16.3 s
same,Plat,"72 h, time 3 day",129.4 x10_4/uL
same,RBC,"72 h, time 3 day",630.8 x10_4/ul
same,Ret,"72 h, time 3 day",8%
same,WBC,"72 h, time 3 day",91.1 x10_2/uL
same,KIDNEY_L,"72 h, time 3 day",0.9 g
same,KIDNEY_R,"72 h, time 3 day",0.9 g
same,KIDNEY_TOTAL,"72 h, time 3 day",1.8 g
same,LIVER,"72 h, time 3 day",9.6 g
same,A/G,"72 h, time 3 day",1.2
same,ALP,"72 h, time 3 day",1684.4 IU/L
same,ALT,"72 h, time 3 day",44.2 IU/L
same,AST,"72 h, time 3 day",69.2 IU/L
same,BUN,"72 h, time 3 day",16.6 mg/dL
same,CRE,"72 h, time 3 day",0.1 mg/dL
same,Ca,"72 h, time 3 day",11.2 mg/dL
same,Cl,"72 h, time 3 day",105.8 meq/L
same,DBIL,"72 h, time 3 day",0 mg/dL
same,GLC,"72 h, time 3 day",194.4 mg/dL
same,IP,"72 h, time 3 day",7.2 mg/dL
same,K,"72 h, time 3 day",3.9 meq/L
same,LDH,"72 h, time 3 day",220.4 IU/L
same,Na,"72 h, time 3 day",144 meq/L
same,PL,"72 h, time 3 day",157.8 mg/dL
same,RALB,"72 h, time 3 day",3 g/dL
same,TBIL,"72 h, time 3 day",0.006 mg/dL
same,TC,"72 h, time 3 day",79.8 mg/dL
same,TG,"72 h, time 3 day",115.6 mg/dL
same,TP,"72 h, time 3 day",5.5 g/dL
same,gamma-GTP,"72 h, time 3 day",1 IU/L
same,TERMINAL_BW,"[…], time 7 day",246.2 g
same,TERMINAL_BW,"[…], time 14 day",269.5 g
same,TERMINAL_BW,"[…], time 28 day",356.1 g
same,APTT,"[…], time 7 day",21.9 s
same,Bas,"[…], time 7 day",0%
same,Eos,"[…], time 7 day",0.8%
same,Fbg,"[…], time 7 day",327.8 mg/dL
same,Hb,"[…], time 7 day",13.8 g/dL
same,Ht,"[…], time 7 day",39.8%
same,Lym,"[…], time 7 day",77.4%
same,MCH,"[…], time 7 day",21.9 pg
same,MCHC,"[…], time 7 day",34.7%
same,MCV,"[…], time 7 day",63 fL
same,Mono,"[…], time 7 day",2.4%
same,Neu,"[…], time 7 day",18.2%
same,PT,"[…], time 7 day",15.8 s
same,Plat,"[…], time 7 day",123.7 x10_4/uL
same,RBC,"[…], time 7 day",631.4 x10_4/ul
same,Ret,"[…], time 7 day",6.8%
same,WBC,"[…], time 7 day",129.6 x10_2/uL
same,APTT,"[…], time 14 day",22.4 s
same,Bas,"[…], time 14 day",0%
same,Eos,"[…], time 14 day",0.8%
same,Fbg,"[…], time 14 day",309 mg/dL
same,Hb,"[…], time 14 day",14.9 g/dL
same,Ht,"[…], time 14 day",41.2%
same,Lym,"[…], time 14 day",87%
same,MCH,"[…], time 14 day",21.4 pg
same,MCHC,"[…], time 14 day",36.1%
same,MCV,"[…], time 14 day",59.4 fL
same,Mono,"[…], time 14 day",1.4%
same,Neu,"[…], time 14 day",10%
same,PT,"[…], time 14 day",16.9 s
same,Plat,"[…], time 14 day",103.8 x10_4/uL
same,RBC,"[…], time 14 day",694.4 x10_4/ul
same,Ret,"[…], time 14 day",4%
same,WBC,"[…], time 14 day",113.3 x10_2/uL
same,APTT,"[…], time 28 day",23.7 s
same,Bas,"[…], time 28 day",0%
same,Eos,"[…], time 28 day",1%
same,Fbg,"[…], time 28 day",314.8 mg/dL
same,Hb,"[…], time 28 day",15.3 g/dL
same,Ht,"[…], time 28 day",44.8%
same,Lym,"[…], time 28 day",84.8%
same,MCH,"[…], time 28 day",19.6 pg
same,MCHC,"[…], time 28 day",34.3%
same,MCV,"[…], time 28 day",57.1 fL
same,Mono,"[…], time 28 day",1.4%
same,Neu,"[…], time 28 day",12%
same,PT,"[…], time 28 day",17.1 s
same,Plat,"[…], time 28 day",109.1 x10_4/uL
same,RBC,"[…], time 28 day",784 x10_4/ul
same,Ret,"[…], time 28 day",2.7%
same,WBC,"[…], time 28 day",122.9 x10_2/uL
same,KIDNEY_L,"[…], time 7 day",1 g
same,KIDNEY_R,"[…], time 7 day",1.1 g
same,KIDNEY_TOTAL,"[…], time 7 day",2.1 g
same,KIDNEY_L,"[…], time 14 day",1.1 g
same,KIDNEY_R,"[…], time 14 day",1.1 g
same,KIDNEY_TOTAL,"[…], time 14 day",2.2 g
same,KIDNEY_L,"[…], time 28 day",1.2 g
same,KIDNEY_R,"[…], time 28 day",1.2 g
same,KIDNEY_TOTAL,"[…], time 28 day",2.4 g
same,LIVER,"[…], time 7 day",11.4 g
same,LIVER,"[…], time 14 day",11.7 g
same,LIVER,"[…], time 28 day",14.3 g
same,A/G,"[…], time 7 day",1.2
same,ALP,"[…], time 7 day",1579.8 IU/L
same,ALT,"[…], time 7 day",42.4 IU/L
same,AST,"[…], time 7 day",72 IU/L
same,BUN,"[…], time 7 day",20.2 mg/dL
same,CRE,"[…], time 7 day",0.2 mg/dL
same,Ca,"[…], time 7 day",10.8 mg/dL
same,Cl,"[…], time 7 day",107.2 meq/L
same,DBIL,"[…], time 7 day",0 mg/dL
same,GLC,"[…], time 7 day",201.4 mg/dL
same,IP,"[…], time 7 day",6.6 mg/dL
same,K,"[…], time 7 day",4.3 meq/L
same,LDH,"[…], time 7 day",194.8 IU/L
same,Na,"[…], time 7 day",143.2 meq/L
same,PL,"[…], time 7 day",156.6 mg/dL
same,RALB,"[…], time 7 day",3 g/dL
same,TBIL,"[…], time 7 day",0.004 mg/dL
same,TC,"[…], time 7 day",80 mg/dL
same,TG,"[…], time 7 day",118.4 mg/dL
same,TP,"[…], time 7 day",5.5 g/dL
same,gamma-GTP,"[…], time 7 day",1.2 IU/L
same,A/G,"[…], time 14 day",1.1
same,ALP,"[…], time 14 day",1520.8 IU/L
same,ALT,"[…], time 14 day",35.6 IU/L
same,AST,"[…], time 14 day",66.8 IU/L
same,BUN,"[…], time 14 day",17.8 mg/dL
same,CRE,"[…], time 14 day",0.2 mg/dL
same,Ca,"[…], time 14 day",10.4 mg/dL
same,Cl,"[…], time 14 day",107 meq/L
same,DBIL,"[…], time 14 day",0 mg/dL
same,GLC,"[…], time 14 day",178.2 mg/dL
same,IP,"[…], time 14 day",6.5 mg/dL
same,K,"[…], time 14 day",4.3 meq/L
same,LDH,"[…], time 14 day",153.2 IU/L
same,Na,"[…], time 14 day",143.6 meq/L
same,PL,"[…], time 14 day",135.6 mg/dL
same,RALB,"[…], time 14 day",3 g/dL
same,TBIL,"[…], time 14 day",0.004 mg/dL
same,TC,"[…], time 14 day",63.4 mg/dL
same,TG,"[…], time 14 day",146.2 mg/dL
same,TP,"[…], time 14 day",5.8 g/dL
same,gamma-GTP,"[…], time 14 day",1.2 IU/L
same,A/G,"[…], time 28 day",1.1
same,ALP,"[…], time 28 day",1240.4 IU/L
same,ALT,"[…], time 28 day",44.8 IU/L
same,AST,"[…], time 28 day",71.6 IU/L
same,BUN,"[…], time 28 day",18.6 mg/dL
same,CRE,"[…], time 28 day",0.2 mg/dL
same,Ca,"[…], time 28 day",10.3 mg/dL
same,Cl,"[…], time 28 day",106.6 meq/L
same,DBIL,"[…], time 28 day",0 mg/dL
same,GLC,"[…], time 28 day",202.4 mg/dL
same,IP,"[…], time 28 day",5.5 mg/dL
same,K,"[…], time 28 day",3.7 meq/L
same,LDH,"[…], time 28 day",175.2 IU/L
same,Na,"[…], time 28 day",141.4 meq/L
same,PL,"[…], time 28 day",145.8 mg/dL
same,RALB,"[…], time 28 day",3.1 g/dL
same,TBIL,"[…], time 28 day",0.01 mg/dL
same,TC,"[…], time 28 day",66 mg/dL
same,TG,"[…], time 28 day",159.8 mg/dL
same,TP,"[…], time 28 day",6 g/dL
same,gamma-GTP,"[…], time 28 day",1 IU/L
